Experimental data: patent US6376497B1, “Antifungal azole derivatives having a fluorinated vinyl group and process for preparing same” (Korea Research Institute of Chemical Technology, priority 1999, dated 2002)
≈ marks a conversion by molar mass, not a printed value.

Columns and labels:
Test in all cases: In vitro antifungal activity, microbroth dilution MIC
Format in all cases: cell-based
[1] = test system: Aspergillus furnigatus B. 19119; conditions: A furnigatus B. 19119, RPMI-1640, 35° C., 4 to 48 hours
Procedure, shortened: (§1)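 Broth microdilution adapted from NCCLS M27, in RPMI-1640 with 0.165 M MOPS, pH 7.0. Yeast or mould inoculum at 2×10^3 CFU/ml was mixed 1:1 with DMSO-derived compound solutions (200 to 0.10 μg/ml before mixing) and incubated at 35 °C for 4 to 48 h. MIC was the concentration showing no growth.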

[2] = test system: Aspergillus niger A. 16404; conditions: A. niger A. 16404, RPMI-1640, 35° C., 4 to 48 hours
Procedure, shortened: as §1

[3] = test system: Candida albicans A. 10231; conditions: C. albicans A. 10231, RPMI-1640, 35° C., 4 to 48 hours
Procedure, shortened: as §1

Candida albicans C1-2 = conditions: C. albicans C1-2, RPMI-1640, 35° C., 4 to 48 hours
Procedure, shortened: as §1

[4] = test system: Candida albicans IFO. 1385; conditions: C. albicans IFO. 1385, RPMI-1640, 35° C., 4 to 48 hours
Procedure, shortened: as §1

Candida krusei K. 11655 = conditions: C. krusei K. 11655, RPMI-1640, 35° C., 4 to 48 hours
Procedure, shortened: as §1

[5] = test system: Candida parapsitosis A. 7330; conditions: C. parapsitosis A. 7330, RPMI-1640, 35° C., 4 to 48 hours
Procedure, shortened: as §1

[6] = test system: Candida pseudotropicalis K. 11658; conditions: C. pseudotropicalis K. 11658, RPMI-1640, 35° C., 4 to 48 hours
Procedure, shortened: as §1

[7] = test system: Candida tropicalis A. 13803; conditions: C. tropicalis A. 13803, RPMI-1640, 35° C., 4 to 48 hours
Procedure, shortened: as §1

[8] = test system: Cryptococcus neoformans A. 34144; conditions: Cry. neoformans A. 34144, RPMI-1640, 35° C., 4 to 48 hours
Procedure, shortened: as §1

[9] = test system: Cryptococcus neoformans B. 42419; conditions: Cry. neoformans B. 42419, RPMI-1640, 35° C., 4 to 48 hours
Procedure, shortened: as §1

[10] = test system: Cryptococcus neoformans IFM. 40092; conditions: Cry. neoformans IFM. 40092, RPMI-1640, 35° C., 4 to 48 hours
Procedure, shortened: as §1

[11] = test system: Torulopsis glabrata B. 16205; conditions: T. glabrata B. 16205, RPMI-1640, 35° C., 4 to 48 hours
Procedure, shortened: as §1

[12] = test system: Trichophyton mentagrophytes A. 9129; conditions: T. mentagrophytes A. 9129, RPMI-1640, 35° C., 4 to 48 hours
Procedure, shortened: as §1

[13] = test system: Trichophyton mentagrophytes B. 32663; conditions: T. mentagrophytes B. 32663, RPMI-1640, 35° C., 4 to 48 hours
Procedure, shortened: as §1

Compound | Minimal inhibitory concentration (MIC) [1] [µg/mL] | Minimal inhibitory concentration (MIC) [2] [µg/mL] | Minimal inhibitory concentration (MIC) [3] [µg/mL] | Minimal inhibitory concentration (MIC) (Candida albicans C1-2) [µg/mL] | Minimal inhibitory concentration (MIC) [4] [µg/mL] | Minimal inhibitory concentration (MIC) (Candida krusei K. 11655) [µg/mL] | Minimal inhibitory concentration (MIC) [5] [µg/mL] | Minimal inhibitory concentration (MIC) [6] [µg/mL] | Minimal inhibitory concentration (MIC) [7] [µg/mL] | Minimal inhibitory concentration (MIC) [8] [µg/mL] | Minimal inhibitory concentration (MIC) [9] [µg/mL] | Minimal inhibitory concentration (MIC) [10] [µg/mL] | Minimal inhibitory concentration (MIC) [11] [µg/mL] | Minimal inhibitory concentration (MIC) [12] [µg/mL] | Minimal inhibitory concentration (MIC) [13] [µg/mL]
FC(=Cc1ccc(F)cc1)OCC1COC(Cn2ccnc2)(c2ccc(Cl)cc2Cl)O1 (stereo not drawn) [Ex. 16] | 3.13 (≈ 6.7 µM) | 3.13 (≈ 6.7 µM) | 12.5 (≈ 26.7 µM) | 6.25 (≈ 13.4 µM) | 0.78 (≈ 1.67 µM) | 6.25 (≈ 13.4 µM) | 6.25 (≈ 13.4 µM) | 3.13 (≈ 6.7 µM) | 25.0 (≈ 53.5 µM) | 1.56 (≈ 3.34 µM) | 1.56 (≈ 3.34 µM) | 0.39 (≈ 0.835 µM) | 6.25 (≈ 13.4 µM) | 1.56 (≈ 3.34 µM) | 1.56 (≈ 3.34 µM)
Cc1cc(C=C(F)OCC2COC(Cn3ccnc3)(c3ccc(Cl)cc3Cl)O2)ccc1Cl (stereo not drawn) [Ex. 17] | 6.25 (≈ 12.6 µM) | 12.5 (≈ 25.1 µM) | 12.5 (≈ 25.1 µM) | 12.5 (≈ 25.1 µM) | 0.78 (≈ 1.57 µM) | 12.5 (≈ 25.1 µM) | 50.0 (≈ 100 µM) | 6.25 (≈ 12.6 µM) | 12.5 (≈ 25.1 µM) | 1.56 (≈ 3.13 µM) | 1.56 (≈ 3.13 µM) | 0.20 (≈ 0.402 µM) | 6.25 (≈ 12.6 µM) | 12.5 (≈ 25.1 µM) | 3.13 (≈ 6.29 µM)
Cc1cccc(C(=C(F)OCC2COC(Cn3ccnc3)(c3ccc(Cl)cc3Cl)O2)C(F)(F)F)c1 (stereo not drawn) [Ex. 20] | 50.0 (≈ 94.1 µM) | 100 (≈ 188 µM) | 6.25 (≈ 11.8 µM) | 6.25 (≈ 11.8 µM) | 0.78 (≈ 1.47 µM) | 100 (≈ 188 µM) | >100 | 100 (≈ 188 µM) | 25.0 (≈ 47.1 µM) | 1.56 (≈ 2.94 µM) | 1.56 (≈ 2.94 µM) | 0.39 (≈ 0.734 µM) | 12.5 (≈ 23.5 µM) | 12.5 (≈ 23.5 µM) | 6.25 (≈ 11.8 µM)
Cc1ccc(C(=C(F)OCC2COC(Cn3ccnc3)(c3ccc(Cl)cc3Cl)O2)C(F)(F)F)cc1 (stereo not drawn) [Ex. 21] | 50.0 (≈ 94.1 µM) | 100 (≈ 188 µM) | 6.25 (≈ 11.8 µM) | 6.25 (≈ 11.8 µM) | 0.78 (≈ 1.47 µM) | >100 | >100 | 100 (≈ 188 µM) | 25.0 (≈ 47.1 µM) | 0.78 (≈ 1.47 µM) | 1.56 (≈ 2.94 µM) | 0.39 (≈ 0.734 µM) | 12.5 (≈ 23.5 µM) | 12.5 (≈ 23.5 µM) | 6.25 (≈ 11.8 µM)
CCc1ccc(C(=C(F)OCC2COC(Cn3ccnc3)(c3ccc(Cl)cc3Cl)O2)C(F)(F)F)cc1 (stereo not drawn) [Ex. 22] | 50.0 (≈ 91.7 µM) | 100 (≈ 183 µM) | 6.25 (≈ 11.5 µM) | 12.5 (≈ 22.9 µM) | 0.78 (≈ 1.43 µM) | 100 (≈ 183 µM) | >100 | 100 (≈ 183 µM) | 25.0 (≈ 45.8 µM) | 1.56 (≈ 2.86 µM) | 1.56 (≈ 2.86 µM) | 0.78 (≈ 1.43 µM) | 25.0 (≈ 45.8 µM) | 25.0 (≈ 45.8 µM) | 12.5 (≈ 22.9 µM)
Cc1ccc(C(=C(F)OCC2COC(Cn3ccnc3)(c3ccc(Cl)cc3Cl)O2)C(F)(F)F)cc1C (stereo not drawn) [Ex. 23] | 50.0 (≈ 91.7 µM) | 100 (≈ 183 µM) | 6.25 (≈ 11.5 µM) | 6.25 (≈ 11.5 µM) | 0.78 (≈ 1.43 µM) | 100 (≈ 183 µM) | >100 | 100 (≈ 183 µM) | 25.0 (≈ 45.8 µM) | 1.56 (≈ 2.86 µM) | 1.56 (≈ 2.86 µM) | 0.39 (≈ 0.715 µM) | 12.5 (≈ 22.9 µM) | 12.5 (≈ 22.9 µM) | 6.25 (≈ 11.5 µM)

Continued, values first:

Minimal inhibitory concentration (MIC) [1] [µg/mL] | Minimal inhibitory concentration (MIC) [2] [µg/mL] | Minimal inhibitory concentration (MIC) [3] [µg/mL] | Minimal inhibitory concentration (MIC) (Candida albicans C1-2) [µg/mL] | Minimal inhibitory concentration (MIC) [4] [µg/mL] | Minimal inhibitory concentration (MIC) (Candida krusei K. 11655) [µg/mL] | Minimal inhibitory concentration (MIC) [5] [µg/mL] | Minimal inhibitory concentration (MIC) [6] [µg/mL] | Minimal inhibitory concentration (MIC) [7] [µg/mL] | Minimal inhibitory concentration (MIC) [8] [µg/mL] | Minimal inhibitory concentration (MIC) [9] [µg/mL] | Minimal inhibitory concentration (MIC) [10] [µg/mL] | Minimal inhibitory concentration (MIC) [11] [µg/mL] | Minimal inhibitory concentration (MIC) [12] [µg/mL] | Minimal inhibitory concentration (MIC) [13] [µg/mL] | Compound
50.0 (≈ 91.7 µM) | 100 (≈ 183 µM) | 6.25 (≈ 11.5 µM) | 6.25 (≈ 11.5 µM) | 0.78 (≈ 1.43 µM) | >100 | >100 | 100 (≈ 183 µM) | 25.0 (≈ 45.8 µM) | 0.78 (≈ 1.43 µM) | 1.56 (≈ 2.86 µM) | 0.39 (≈ 0.715 µM) | 12.5 (≈ 22.9 µM) | 12.5 (≈ 22.9 µM) | 6.25 (≈ 11.5 µM) | Cc1cc(C)cc(C(=C(F)OCC2COC(Cn3ccnc3)(c3ccc(Cl)cc3Cl)O2)C(F)(F)F)c1 (stereo not drawn) [Ex. 24]
100 (≈ 171 µM) | 100 (≈ 171 µM) | 6.25 (≈ 10.7 µM) | 12.5 (≈ 21.4 µM) | 1.56 (≈ 2.67 µM) | 100 (≈ 171 µM) | >100 | 100 (≈ 171 µM) | 50.0 (≈ 85.4 µM) | 1.56 (≈ 2.67 µM) | 1.56 (≈ 2.67 µM) | 0.78 (≈ 1.33 µM) | 25.0 (≈ 42.7 µM) | 25.0 (≈ 42.7 µM) | 12.5 (≈ 21.4 µM) | FC(OCC1COC(Cn2ccnc2)(c2ccc(Cl)cc2Cl)O1)=C(c1ccc(C(F)(F)F)cc1)C(F)(F)F (stereo not drawn) [Ex. 25]
100 (≈ 183 µM) | 100 (≈ 183 µM) | 25.0 (≈ 45.7 µM) | 25.0 (≈ 45.7 µM) | 1.56 (≈ 2.85 µM) | >100 | >100 | >100 | >100 | 1.56 (≈ 2.85 µM) | 1.56 (≈ 2.85 µM) | 0.78 (≈ 1.43 µM) | 25.0 (≈ 45.7 µM) | 25.0 (≈ 45.7 µM) | 6.25 (≈ 11.4 µM) | COc1ccc(C(=C(F)OCC2COC(Cn3ccnc3)(c3ccc(Cl)cc3Cl)O2)C(F)(F)F)cc1 (stereo not drawn) [Ex. 27]
